# Assay results published in patent publication US20150141336A1, “Pancreatic Peptide Compounds and Use” (Novo Nordisk A/S, priority 2012, published 2015).
# Numbered stars: 1 amine (or outer) side, 2 acyl side, 3 side chain; on linkers, the order of the positions; unused ones are H or OH. Side chains are listed from the residue outwards. Peptide text beside a SMILES is read from it. * marks the point of attachment. C18 diacid = O=C(O)CCCCCCCCCCCCCCCCC(=O)*; γGlu = O=C(O)[C@H](CCC(=O)[*:2])N[*:1]; AEEA = NCCOCCOCC(=O)O
# Test: Assay (II) PK i.v. minipig, in vivo half-life
# Design: species or system Göttingen mini-pigs
# Details: male, Göttingen, minipig, iv, Half-life minipig, Assay (II)
# In short: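 Male Göttingen mini-pigs (18–22 kg, n=5) received 6 nmol/kg i.v. via central catheter, formulated in 50 mM K2HPO4, 0.05% tween 80, pH 8.0. EDTA plasma sampled pre-dose to 240 h, quantified by TFC/LC/MS/MS (MRM, range 1-2000 nmol/l); half-life from non-compartmental analysis per animal.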
row,half-life [h],SMILES
1,83,CC[C@H](C)[C@H](NC(=O)[C@H](Cc1ccc(O)cc1)NC(=O)[C@H](CCCNC(=N)N)NC(=O)[C@H](CCCNC(=N)N)NC(=O)[C@H](CC(C)C)NC(=O)[C@H](CC(=O)O)NC(=O)[C@H](CCCCNC(=O)COCCOCCNC(=O)COCCOCCNC(=O)CC[C@H](NC(=O)CCCCCCCCCCCCCCCCC(=O)O)C(=O)O)NC(=O)[C@H](C)NC(=O)[C@H](Cc1ccc(O)cc1)NC(=O)[C@H](CCC(N)=O)NC(=O)[C@H](C)NC(=O)[C@H](CCSC)NC(=O)[C@H](CCC(N)=O)NC(=O)[C@H](CCC(=O)O)NC(=O)[C@@H]1CCCN1C(=O)[C@@H](NC(=O)[C@H](C)NC(=O)[C@H](CC(N)=O)NC(=O)[C@H](CC(=O)O)NC(=O)CNC(=O)[C@@H]1CCCN1C(=O)[C@H](Cc1ccc(O)cc1)NC(=O)[C@@H](NC(=O)[C@@H]1CCCN1C(=O)[C@H](CCC(=O)O)NC(=O)[C@H](CC(C)C)NC(=O)[C@@H]1CCCN1)C(C)C)[C@@H](C)O)C(=O)N[C@@H](CC(N)=O)C(=O)N[C@@H](CCSC)C(=O)N[C@@H](CC(C)C)C(=O)N[C@H](C(=O)N[C@@H](CCCNC(=N)N)C(=O)N1CCC[C@H]1C(=O)N[C@@H](CCCNC(=N)N)C(=O)N[C@@H](Cc1ccc(O)cc1)C(N)=O)[C@@H](C)O [Compound L] (H-PLEPVYPGDNATPEQMAQYAK([AEEA-AEEA-γGlu-C18 diacid])DLRRYINMLTRPRY-NH2; N-terminus and C-terminus assumed)
2,52,CC[C@H](C)[C@H](NC(=O)[C@H](Cc1ccc(O)cc1)NC(=O)[C@H](CCCNC(=N)N)NC(=O)[C@H](CCCNC(=N)N)NC(=O)[C@H](CC(C)C)NC(=O)[C@H](CC(=O)O)NC(=O)[C@H](C)NC(=O)[C@H](C)NC(=O)[C@H](Cc1ccc(O)cc1)NC(=O)[C@H](CCC(N)=O)NC(=O)[C@H](C)NC(=O)[C@H](CCSC)NC(=O)[C@H](CCC(N)=O)NC(=O)[C@H](CCC(=O)O)NC(=O)[C@@H]1CCCN1C(=O)[C@@H](NC(=O)[C@H](C)NC(=O)[C@H](CC(N)=O)NC(=O)[C@H](CC(=O)O)NC(=O)CNC(=O)[C@@H]1CCCN1C(=O)[C@H](Cc1ccc(O)cc1)NC(=O)[C@@H](NC(=O)[C@@H]1CCCN1C(=O)[C@H](CCCCNC(=O)COCCOCCNC(=O)COCCOCCNC(=O)CC[C@H](NC(=O)CCCCCCCCCCCCCCCCC(=O)O)C(=O)O)NC(=O)[C@H](CC(C)C)NC(=O)[C@@H]1CCCN1)C(C)C)[C@@H](C)O)C(=O)N[C@@H](CC(N)=O)C(=O)N[C@@H](CCSC)C(=O)N[C@@H](CC(C)C)C(=O)N[C@H](C(=O)N[C@@H](CCCNC(=N)N)C(=O)N1CCC[C@H]1C(=O)N[C@@H](CCCNC(=N)N)C(=O)N[C@@H](Cc1ccc(O)cc1)C(N)=O)[C@@H](C)O [Compound AD]
3,24,CC[C@H](C)[C@H](NC(=O)[C@H](Cc1ccc(O)cc1)NC(=O)[C@H](CCCNC(=N)N)NC(=O)[C@H](CCCNC(=N)N)NC(=O)[C@H](CC(C)C)NC(=O)[C@H](CC(=O)O)NC(=O)[C@H](C)NC(=O)[C@H](C)NC(=O)[C@H](Cc1ccc(O)cc1)NC(=O)[C@H](CCC(N)=O)NC(=O)[C@H](C)NC(=O)[C@H](CCSC)NC(=O)[C@H](CCC(N)=O)NC(=O)[C@H](CCCCNC(=O)COCCOCCNC(=O)COCCOCCNC(=O)CC[C@H](NC(=O)CCCCCCCCCCCCCCCCC(=O)O)C(=O)O)NC(=O)[C@@H]1CCCN1C(=O)[C@@H](NC(=O)[C@H](C)NC(=O)[C@H](CC(N)=O)NC(=O)[C@H](CC(=O)O)NC(=O)CNC(=O)[C@@H]1CCCN1C(=O)[C@H](Cc1ccc(O)cc1)NC(=O)[C@@H](NC(=O)[C@@H]1CCCN1C(=O)[C@H](CCC(=O)O)NC(=O)[C@@H](N)CC(C)C)C(C)C)[C@@H](C)O)C(=O)N[C@@H](CC(N)=O)C(=O)N[C@@H](CCSC)C(=O)N[C@@H](CC(C)C)C(=O)N[C@H](C(=O)N[C@@H](CCCNC(=N)N)C(=O)N1CCC[C@H]1C(=O)N[C@@H](CCCNC(=N)N)C(=O)N[C@@H](Cc1ccc(O)cc1)C(N)=O)[C@@H](C)O [Compound BA] (H-LEPVYPGDNATPK([AEEA-AEEA-γGlu-C18 diacid])QMAQYAADLRRYINMLTRPRY-NH2; N-terminus and C-terminus assumed)
4,17,CC[C@H](C)[C@H](NC(=O)[C@H](Cc1ccc(O)cc1)NC(=O)[C@H](CCCNC(=N)N)NC(=O)[C@H](CCCNC(=N)N)NC(=O)[C@H](CC(C)C)NC(=O)[C@H](CC(=O)O)NC(=O)[C@H](C)NC(=O)[C@H](C)NC(=O)[C@H](Cc1ccc(O)cc1)NC(=O)[C@H](CCC(N)=O)NC(=O)[C@H](C)NC(=O)[C@H](CCSC)NC(=O)[C@H](CCC(N)=O)NC(=O)[C@H](CCC(=O)O)NC(=O)[C@@H]1CCCN1C(=O)[C@@H](NC(=O)[C@H](CCCCNC(=O)COCCOCCNC(=O)COCCOCCNC(=O)CC[C@H](NC(=O)CCCCCCCCCCCCCCCCC(=O)O)C(=O)O)NC(=O)[C@H](CC(N)=O)NC(=O)[C@H](CC(=O)O)NC(=O)CNC(=O)[C@@H]1CCCN1C(=O)[C@H](Cc1ccc(O)cc1)NC(=O)[C@@H](NC(=O)[C@@H]1CCCN1C(=O)[C@H](CCC(=O)O)NC(=O)[C@@H](N)CC(C)C)C(C)C)[C@@H](C)O)C(=O)N[C@@H](CC(N)=O)C(=O)N[C@@H](CCSC)C(=O)N[C@@H](CC(C)C)C(=O)N[C@H](C(=O)N[C@@H](CCCNC(=N)N)C(=O)N1CCC[C@H]1C(=O)N[C@@H](CCCNC(=N)N)C(=O)N[C@@H](Cc1ccc(O)cc1)C(N)=O)[C@@H](C)O [Compound BD]
5,31,CC[C@H](C)[C@H](NC(=O)[C@H](Cc1ccc(O)cc1)NC(=O)[C@H](CCCNC(=N)N)NC(=O)[C@H](CCCNC(=N)N)NC(=O)[C@H](CCCCNC(=O)COCCOCCNC(=O)COCCOCCNC(=O)CC[C@H](NC(=O)CCCCCCCCCCCCCCCCC(=O)O)C(=O)O)NC(=O)[C@H](CC(=O)O)NC(=O)[C@H](C)NC(=O)[C@H](C)NC(=O)[C@H](Cc1ccc(O)cc1)NC(=O)[C@H](CCC(N)=O)NC(=O)[C@H](C)NC(=O)[C@H](CCSC)NC(=O)[C@H](CCC(N)=O)NC(=O)[C@H](CCC(=O)O)NC(=O)[C@@H]1CCCN1C(=O)[C@@H](NC(=O)[C@H](C)NC(=O)[C@H](CC(N)=O)NC(=O)[C@H](CC(=O)O)NC(=O)CNC(=O)[C@@H]1CCCN1C(=O)[C@H](Cc1ccc(O)cc1)NC(=O)[C@@H](NC(=O)[C@@H]1CCCN1C(=O)[C@H](CCC(=O)O)NC(=O)[C@@H](N)CC(C)C)C(C)C)[C@@H](C)O)C(=O)N[C@@H](CC(N)=O)C(=O)N[C@@H](CCSC)C(=O)N[C@@H](CC(C)C)C(=O)N[C@H](C(=O)N[C@@H](CCCNC(=N)N)C(=O)N1CCC[C@H]1C(=O)N[C@@H](CCCNC(=N)N)C(=O)N[C@@H](Cc1ccc(O)cc1)C(N)=O)[C@@H](C)O [Compound AR] (H-LEPVYPGDNATPEQMAQYAADK([AEEA-AEEA-γGlu-C18 diacid])RRYINMLTRPRY-NH2; N-terminus and C-terminus assumed)
